From article PMC11233931, “Remodeling tumor‐associated macrophage for anti‐cancer effects by rational design of irreversible inhibition of mitogen‐activated protein kinase‐activated protein kinase 2” (MedComm, 2024)

How the values were obtained:
Assay in all cases: Eurofins kinase selectivity profile against 380 other human recombinant kinases (Table S2)
Format in all cases: biochemical
[1] = target: T1, 380 human recombinant protein kinases (Homo sapiens, UniProt P00519, H396P); conditions: Abl (H396P) (h), read-out: Inhibition rate
T1 construct: purchased Eurofins (Celle Lévescault)
Outline: (§1)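 Outsourced panel: 380 human recombinant kinases; inhibitor tested at various concentrations; purpose: MK2 selectivity check.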

[2] = target: T2, 380 human recombinant protein kinases (Homo sapiens, UniProt P11362); conditions: FGFR1(h), read-out: Inhibition rate
T2 construct: purchased Eurofins (Celle Lévescault)
Outline: as §1

[3] = target: T3, 380 human recombinant protein kinases (Homo sapiens, UniProt P21802); conditions: FGFR2(h), read-out: Inhibition rate
T3 construct: purchased Eurofins (Celle Lévescault)
Outline: as §1

[4] = target: T4, 380 human recombinant protein kinases (Homo sapiens, UniProt P23458); conditions: JAK1(h), read-out: Inhibition rate
T4 construct: purchased Eurofins (Celle Lévescault)
Outline: as §1

[5] = target: T5, 380 human recombinant protein kinases (Homo sapiens, UniProt P42685); conditions: PTK5(h), read-out: Inhibition rate
T5 construct: purchased Eurofins (Celle Lévescault)
Outline: as §1

[6] = target: T6, 380 human recombinant protein kinases (Homo sapiens, UniProt Q00534); conditions: CDK6/cyclinD3(h), read-out: Inhibition rate
T6 construct: purchased Eurofins (Celle Lévescault)
Outline: as §1

[7] = target: T7, 380 human recombinant protein kinases (Homo sapiens, UniProt Q02763); conditions: Tie2 (h), read-out: Inhibition rate (%)
T7 construct: purchased Eurofins (Celle Lévescault)
Outline: as §1

[8] = target: T8, 380 human recombinant protein kinases (Homo sapiens, UniProt Q13873); conditions: BMPR2(h), read-out: Inhibition rate
T8 construct: purchased Eurofins (Celle Lévescault)
T8 sequence (Q13873 27-1038): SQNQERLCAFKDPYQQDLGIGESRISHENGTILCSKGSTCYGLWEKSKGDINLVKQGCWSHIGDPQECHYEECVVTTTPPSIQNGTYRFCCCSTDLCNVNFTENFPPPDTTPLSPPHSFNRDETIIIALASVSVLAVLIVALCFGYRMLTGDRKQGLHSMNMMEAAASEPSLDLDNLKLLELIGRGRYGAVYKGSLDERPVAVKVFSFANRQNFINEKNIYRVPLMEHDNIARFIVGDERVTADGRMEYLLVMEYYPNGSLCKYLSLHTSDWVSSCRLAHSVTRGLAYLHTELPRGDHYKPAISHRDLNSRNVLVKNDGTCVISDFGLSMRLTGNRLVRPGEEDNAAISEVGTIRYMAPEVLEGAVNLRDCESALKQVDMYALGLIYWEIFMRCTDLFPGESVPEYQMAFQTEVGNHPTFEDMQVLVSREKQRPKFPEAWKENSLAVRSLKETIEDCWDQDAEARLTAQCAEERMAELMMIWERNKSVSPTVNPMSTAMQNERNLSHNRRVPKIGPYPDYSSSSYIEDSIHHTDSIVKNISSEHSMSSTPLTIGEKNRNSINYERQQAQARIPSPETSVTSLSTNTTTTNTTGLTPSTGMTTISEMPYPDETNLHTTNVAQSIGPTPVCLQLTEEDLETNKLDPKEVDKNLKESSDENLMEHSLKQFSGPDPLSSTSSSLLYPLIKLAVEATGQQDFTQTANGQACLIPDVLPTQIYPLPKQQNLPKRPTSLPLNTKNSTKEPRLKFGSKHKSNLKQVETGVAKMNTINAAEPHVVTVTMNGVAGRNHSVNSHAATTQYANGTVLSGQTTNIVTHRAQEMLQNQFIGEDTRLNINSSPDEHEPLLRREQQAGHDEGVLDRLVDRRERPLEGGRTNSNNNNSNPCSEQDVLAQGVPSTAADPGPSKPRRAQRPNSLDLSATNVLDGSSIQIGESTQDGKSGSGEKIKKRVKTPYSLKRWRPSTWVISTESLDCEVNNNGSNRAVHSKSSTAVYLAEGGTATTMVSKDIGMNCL
Outline: as §1

[9] = target: T9, 380 human recombinant protein kinases (Homo sapiens, UniProt Q8N5S9); conditions: CaMKK1(h), read-out: Inhibition rate
T9 construct: purchased Eurofins (Celle Lévescault)
Outline: as §1

[10] = target: T10, 380 human recombinant protein kinases (Homo sapiens, UniProt Q9Y2U5); conditions: MEKK2(h), read-out: Inhibition rate
T10 construct: purchased Eurofins (Celle Lévescault)
T10 sequence (Q9Y2U5 1-619): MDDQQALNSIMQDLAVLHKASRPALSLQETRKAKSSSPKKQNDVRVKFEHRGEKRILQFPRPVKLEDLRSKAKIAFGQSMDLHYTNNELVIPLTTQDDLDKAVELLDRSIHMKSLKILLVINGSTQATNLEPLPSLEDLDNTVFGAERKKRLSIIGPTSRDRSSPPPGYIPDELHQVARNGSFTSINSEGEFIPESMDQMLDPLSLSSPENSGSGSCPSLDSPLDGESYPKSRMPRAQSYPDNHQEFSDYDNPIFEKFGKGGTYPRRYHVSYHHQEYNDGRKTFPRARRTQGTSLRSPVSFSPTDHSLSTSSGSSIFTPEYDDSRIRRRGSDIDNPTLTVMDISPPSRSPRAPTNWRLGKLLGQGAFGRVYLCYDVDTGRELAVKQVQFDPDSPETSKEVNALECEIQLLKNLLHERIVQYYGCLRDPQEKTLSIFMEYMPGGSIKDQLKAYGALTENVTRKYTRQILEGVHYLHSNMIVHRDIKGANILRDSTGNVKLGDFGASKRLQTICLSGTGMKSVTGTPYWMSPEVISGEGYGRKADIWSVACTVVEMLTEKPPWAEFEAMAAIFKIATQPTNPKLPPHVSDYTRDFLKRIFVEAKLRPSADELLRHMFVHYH
Outline: as §1

T3 sequence (P21802 22-821): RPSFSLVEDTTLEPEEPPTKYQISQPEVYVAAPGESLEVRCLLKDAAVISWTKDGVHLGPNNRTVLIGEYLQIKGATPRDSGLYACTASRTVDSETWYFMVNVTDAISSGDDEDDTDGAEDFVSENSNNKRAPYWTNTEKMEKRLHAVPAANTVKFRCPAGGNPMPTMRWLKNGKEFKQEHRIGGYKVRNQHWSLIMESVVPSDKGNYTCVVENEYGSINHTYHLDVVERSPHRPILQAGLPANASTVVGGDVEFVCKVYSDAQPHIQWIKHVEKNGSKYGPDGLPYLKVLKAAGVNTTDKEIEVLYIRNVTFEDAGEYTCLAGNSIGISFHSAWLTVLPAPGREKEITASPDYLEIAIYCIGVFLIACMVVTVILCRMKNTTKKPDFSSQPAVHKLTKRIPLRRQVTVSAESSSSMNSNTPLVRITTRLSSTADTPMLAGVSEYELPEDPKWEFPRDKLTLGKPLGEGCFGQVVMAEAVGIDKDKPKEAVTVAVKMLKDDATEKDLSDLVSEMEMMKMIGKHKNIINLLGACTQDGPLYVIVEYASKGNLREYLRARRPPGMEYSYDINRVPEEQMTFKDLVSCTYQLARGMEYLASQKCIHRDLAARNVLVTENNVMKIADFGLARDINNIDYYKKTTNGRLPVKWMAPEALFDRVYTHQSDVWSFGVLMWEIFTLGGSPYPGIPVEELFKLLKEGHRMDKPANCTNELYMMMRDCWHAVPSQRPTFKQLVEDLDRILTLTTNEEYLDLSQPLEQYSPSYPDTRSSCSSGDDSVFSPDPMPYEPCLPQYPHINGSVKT
T7 sequence (Q02763 23-1124): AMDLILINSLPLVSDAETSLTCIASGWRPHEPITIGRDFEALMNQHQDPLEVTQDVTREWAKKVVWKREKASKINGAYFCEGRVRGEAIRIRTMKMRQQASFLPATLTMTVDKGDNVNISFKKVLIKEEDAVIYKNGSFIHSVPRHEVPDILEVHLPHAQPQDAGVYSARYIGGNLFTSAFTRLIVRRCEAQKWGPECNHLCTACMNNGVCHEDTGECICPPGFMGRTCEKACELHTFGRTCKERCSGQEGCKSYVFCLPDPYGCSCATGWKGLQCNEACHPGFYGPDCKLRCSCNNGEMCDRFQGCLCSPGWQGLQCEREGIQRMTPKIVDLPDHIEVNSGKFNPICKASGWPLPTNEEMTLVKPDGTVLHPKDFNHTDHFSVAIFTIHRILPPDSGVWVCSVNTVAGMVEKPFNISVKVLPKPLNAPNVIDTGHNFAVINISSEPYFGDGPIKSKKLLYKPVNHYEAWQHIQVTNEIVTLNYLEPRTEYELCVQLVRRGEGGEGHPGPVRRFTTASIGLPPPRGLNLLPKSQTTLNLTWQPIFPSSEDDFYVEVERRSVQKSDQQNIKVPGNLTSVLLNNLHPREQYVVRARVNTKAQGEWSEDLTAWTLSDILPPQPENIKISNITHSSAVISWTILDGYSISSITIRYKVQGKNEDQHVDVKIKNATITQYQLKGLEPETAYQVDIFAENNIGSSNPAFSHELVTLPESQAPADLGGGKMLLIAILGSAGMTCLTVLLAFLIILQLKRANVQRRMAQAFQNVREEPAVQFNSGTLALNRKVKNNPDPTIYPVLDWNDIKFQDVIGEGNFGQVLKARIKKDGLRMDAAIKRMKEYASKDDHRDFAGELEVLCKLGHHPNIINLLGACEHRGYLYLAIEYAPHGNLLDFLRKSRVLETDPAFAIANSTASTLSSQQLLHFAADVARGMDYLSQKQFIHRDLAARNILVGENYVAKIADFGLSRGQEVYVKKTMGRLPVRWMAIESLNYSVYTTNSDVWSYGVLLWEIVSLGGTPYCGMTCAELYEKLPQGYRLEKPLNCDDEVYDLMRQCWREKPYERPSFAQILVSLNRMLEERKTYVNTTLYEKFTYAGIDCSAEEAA
T4 sequence (P23458 whole entry): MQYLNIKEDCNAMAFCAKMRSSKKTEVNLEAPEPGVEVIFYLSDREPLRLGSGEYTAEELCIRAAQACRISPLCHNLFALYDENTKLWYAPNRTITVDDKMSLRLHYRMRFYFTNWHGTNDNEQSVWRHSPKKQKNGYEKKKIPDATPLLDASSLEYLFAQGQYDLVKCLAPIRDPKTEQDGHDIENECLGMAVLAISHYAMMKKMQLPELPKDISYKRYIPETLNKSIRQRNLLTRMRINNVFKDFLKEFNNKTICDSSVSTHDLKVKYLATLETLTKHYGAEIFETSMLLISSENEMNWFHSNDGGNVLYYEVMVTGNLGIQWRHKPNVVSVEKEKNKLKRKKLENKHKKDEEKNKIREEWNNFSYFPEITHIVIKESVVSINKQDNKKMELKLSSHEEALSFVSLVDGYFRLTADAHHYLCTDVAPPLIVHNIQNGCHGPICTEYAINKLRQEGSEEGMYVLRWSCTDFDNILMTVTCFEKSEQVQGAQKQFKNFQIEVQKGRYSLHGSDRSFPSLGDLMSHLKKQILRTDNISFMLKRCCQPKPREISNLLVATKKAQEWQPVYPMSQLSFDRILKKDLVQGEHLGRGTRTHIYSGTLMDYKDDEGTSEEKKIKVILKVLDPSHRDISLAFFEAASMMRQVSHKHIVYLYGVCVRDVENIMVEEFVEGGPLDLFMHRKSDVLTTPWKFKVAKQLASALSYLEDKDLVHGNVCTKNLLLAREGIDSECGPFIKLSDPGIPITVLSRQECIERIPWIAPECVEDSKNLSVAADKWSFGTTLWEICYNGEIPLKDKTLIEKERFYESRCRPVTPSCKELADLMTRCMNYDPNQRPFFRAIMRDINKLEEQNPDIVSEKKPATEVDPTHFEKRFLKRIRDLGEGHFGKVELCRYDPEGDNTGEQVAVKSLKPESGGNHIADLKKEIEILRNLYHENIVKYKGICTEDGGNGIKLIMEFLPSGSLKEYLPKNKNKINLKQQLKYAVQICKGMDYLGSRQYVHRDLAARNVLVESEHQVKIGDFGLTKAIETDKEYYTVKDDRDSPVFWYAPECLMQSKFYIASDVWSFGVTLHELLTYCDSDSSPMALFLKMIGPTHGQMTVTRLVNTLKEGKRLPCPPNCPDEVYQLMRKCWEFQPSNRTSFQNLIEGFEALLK
T9 sequence (Q8N5S9 whole entry): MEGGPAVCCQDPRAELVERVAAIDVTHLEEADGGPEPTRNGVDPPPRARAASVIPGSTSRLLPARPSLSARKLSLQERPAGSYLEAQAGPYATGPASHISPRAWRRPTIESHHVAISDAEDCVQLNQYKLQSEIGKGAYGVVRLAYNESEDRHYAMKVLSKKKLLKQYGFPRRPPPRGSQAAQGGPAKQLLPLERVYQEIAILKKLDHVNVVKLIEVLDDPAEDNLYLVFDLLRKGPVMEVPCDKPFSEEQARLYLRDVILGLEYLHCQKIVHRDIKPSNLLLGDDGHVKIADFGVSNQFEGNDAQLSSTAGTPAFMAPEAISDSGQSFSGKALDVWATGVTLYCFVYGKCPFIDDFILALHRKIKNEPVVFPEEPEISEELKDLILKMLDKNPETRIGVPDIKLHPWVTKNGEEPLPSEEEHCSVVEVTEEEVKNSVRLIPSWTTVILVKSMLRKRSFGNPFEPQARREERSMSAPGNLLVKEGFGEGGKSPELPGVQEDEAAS
T5 sequence (P42685 whole entry): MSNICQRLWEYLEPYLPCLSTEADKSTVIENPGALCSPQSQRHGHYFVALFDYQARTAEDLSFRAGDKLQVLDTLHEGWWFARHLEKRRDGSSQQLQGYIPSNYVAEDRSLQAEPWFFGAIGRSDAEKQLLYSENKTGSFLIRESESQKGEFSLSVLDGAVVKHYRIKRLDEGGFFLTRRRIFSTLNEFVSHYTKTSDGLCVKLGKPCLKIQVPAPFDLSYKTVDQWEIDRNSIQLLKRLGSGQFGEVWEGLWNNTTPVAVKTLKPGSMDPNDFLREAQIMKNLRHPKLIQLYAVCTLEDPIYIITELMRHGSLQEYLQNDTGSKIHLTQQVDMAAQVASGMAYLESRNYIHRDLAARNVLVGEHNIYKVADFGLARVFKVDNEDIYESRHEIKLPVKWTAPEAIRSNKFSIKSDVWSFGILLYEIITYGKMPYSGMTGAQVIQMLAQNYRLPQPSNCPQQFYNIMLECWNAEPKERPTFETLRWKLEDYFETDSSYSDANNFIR
T6 sequence (Q00534 whole entry): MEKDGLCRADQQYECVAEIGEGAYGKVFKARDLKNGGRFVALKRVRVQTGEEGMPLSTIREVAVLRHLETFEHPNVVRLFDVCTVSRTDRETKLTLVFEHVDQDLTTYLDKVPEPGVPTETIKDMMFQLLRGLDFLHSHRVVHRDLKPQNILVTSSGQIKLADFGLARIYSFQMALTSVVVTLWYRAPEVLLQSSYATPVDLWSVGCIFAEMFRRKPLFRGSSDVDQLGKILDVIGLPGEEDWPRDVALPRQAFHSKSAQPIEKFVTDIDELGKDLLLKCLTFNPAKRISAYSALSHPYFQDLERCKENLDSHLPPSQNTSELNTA

`C=CC(=O)Nc1cc(-c2cc(-c3cc4c([nH]3)CCNC4=O)ccn2)ccc1OC(F)(F)F` [compound 11] showed an inhibition at 0.01 µM ([1]; 10 nM) of 6%, an inhibition at 0.1 µM ([1]; 100 nM) of 3% and an inhibition at 1 µM ([1]; 1000 nM) of 1%. The inhibition at 0.01 µM ([2]; 10 nM) was -2%, the inhibition at 0.1 µM ([2]; 100 nM) was 6% and the inhibition at 1 µM ([2]; 1000 nM) was 7%. It also gave an inhibition at 0.01 µM ([3]; 10 nM) of -22%, an inhibition at 0.1 µM ([3]; 100 nM) of -12% and an inhibition at 1 µM ([3]; 1000 nM) of -2%. For the same molecule, the inhibition at 0.01 µM ([4]; 10 nM) was -6%, the inhibition at 0.1 µM ([4]; 100 nM) was -8% and the inhibition at 1 µM ([4]; 1000 nM) was 1%. It also gave an inhibition at 0.01 µM ([5]; 10 nM) of -7%, an inhibition at 0.1 µM ([5]; 100 nM) of 6% and an inhibition at 1 µM ([5]; 1000 nM) of 5%. The inhibition at 0.01 µM ([6]; 10 nM) was 2%, the inhibition at 0.1 µM ([6]; 100 nM) was 6% and the inhibition at 1 µM ([6]; 1000 nM) was -3%. It also gave an inhibition at 0.01 µM ([7]; 10 nM) of 0%, an inhibition at 0.1 µM ([7]; 100 nM) of 10% and an inhibition at 1 µM ([7]; 1000 nM) of 24%. The inhibition at 0.01 µM ([8]; 10 nM) was 8%, the inhibition at 0.1 µM ([8]; 100 nM) was 13% and the inhibition at 1 µM ([8]; 1000 nM) was 28%. For the same molecule, the inhibition at 0.01 µM ([9]; 10 nM) was -7%, the inhibition at 0.1 µM ([9]; 100 nM) was 4% and the inhibition at 1 µM ([9]; 1000 nM) was 11%. It also gave an inhibition at 0.01 µM ([10]; 10 nM) of -3%, an inhibition at 0.1 µM ([10]; 100 nM) of 2% and an inhibition at 1 µM ([10]; 1000 nM) of -2%.
